These results are taken from patent US8735429B2, “Benzamide compounds useful as histone deacetylase inhibitors” (AstraZeneca AB, priority 2005, dated 2014).

One experiment concerns the target T1, recombinant human HDAC1 (Homo sapiens, UniProt Q13547).
T1 construct: FLAG (C); made in house; host or cells: Hi5 insect cells
Kind of experiment: In vitro enzyme assay of recombinant HDAC1 (Test (a)). The format is biochemical. The settings on record: recombinant human HDAC1, acetylated histone H4 peptide substrate; read-out: IC50 Test (a) (In vitro assay for the inhibition of HDAC1). The procedure:
(a) In Vitro Enzyme Assay of Recombinant HDAC1
HDAC inhibitors were screened against recombinant human HDAC1 produced in Hi5 insect cells. The enzyme was cloned with a FLAG tag at the C-terminal of the gene and affinity purified using Anti-FLAG M2 agarose from SIGMA (A2220).
The deacetylase assays were carried out in a 50 μl reaction. HDAC1 (75 ng of enzyme) diluted in 15 μl of reaction buffer (25 mM TrisHCl (pH 8), 137 mM NaCl, 2.7 mM KCl, 1 mM MgCl2) was mixed with either buffer alone (10 μl) or buffer containing compound (10 μl) for 30 minutes at ambient temperature. 25 μM acetylated histone H4 peptide (KI 174 Biomol) diluted in 25 μl of buffer was then added to the reaction and incubated for one hour at ambient temperature. The reaction was stopped by addition of an equal volume (50 μl) of Fluor de Lys developer (Biomol) containing Trichostatin A at 2 μM. The reaction was allowed to develop for 30 minutes at ambient temperature and then fluorescence measured at an excitation wavelength of 360 nm and an emission wavelength of 465 nm. IC50 values for HDAC enzyme inhibitors were determined by performing dose response curves with individual compounds and determining the concentration of inhibitor producing fifty percent decrease in the maximal signal (diluent control).

A further experiment concerns HCT116 cells. Kind of experiment: In vitro assay of inhibition of proliferation in whole cells (Test (b)). The format is cell-based. To be noted: Homo sapiens, HCT-116, 72 hours, MTS, read-out: IC50 Test (b) (In vitro assay for the inhibition of whole cell proliferation). The procedure: (b) In Vitro Assay of Inhibition of Proliferation in Whole Cells
Inhibition of proliferation in whole cells was assayed using the Promega cell titer 96 aqueous proliferation assay (Promega #G5421). HCT116 cells were seeded in 96 well plates at 1×10^3 cells/well, and allowed to adhere overnight. They were treated with inhibitors for 72 hours. 20 μl of the tetrazolium dye MTS was added to each well and the plates were re-incubated for 3 hours. Absorbance was then measured on a 96 well plate reader at […]. The IC50 values for HDAC inhibitors were determined by performing dose response curves with individual compounds and determining the concentration of inhibitor producing fifty percent decrease in the maximal signal (diluent control).

T1 sequence (Q13547 whole entry): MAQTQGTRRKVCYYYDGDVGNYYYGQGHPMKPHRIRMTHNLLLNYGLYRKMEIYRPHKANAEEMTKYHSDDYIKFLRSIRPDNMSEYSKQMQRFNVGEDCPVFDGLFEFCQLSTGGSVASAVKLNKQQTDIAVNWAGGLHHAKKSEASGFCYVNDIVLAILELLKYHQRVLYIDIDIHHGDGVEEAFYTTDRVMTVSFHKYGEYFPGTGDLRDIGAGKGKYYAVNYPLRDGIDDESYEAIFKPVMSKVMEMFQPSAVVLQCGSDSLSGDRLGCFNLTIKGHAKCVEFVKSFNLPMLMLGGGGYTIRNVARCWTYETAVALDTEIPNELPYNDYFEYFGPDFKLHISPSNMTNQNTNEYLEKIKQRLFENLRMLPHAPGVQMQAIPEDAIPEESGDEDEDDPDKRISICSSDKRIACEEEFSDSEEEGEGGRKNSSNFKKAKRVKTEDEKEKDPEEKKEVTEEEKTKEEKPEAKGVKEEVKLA

As for `Nc1ccccc1NC(=O)c1ccc(C2CCN(Cc3ccccn3)CC2)cc1` [Comparative Compound 1, N-(2-aminophenyl)-4-[1-(pyrid-2-ylmethyl)piperidin-4-yl]benzamide], the results for the IC50 at recombinant human HDAC1 and with HCT116 cells were 0.1 µM and 1.43 µM, respectively.
The like results for `COc1c(CN2CCC(c3ccc(C(=O)Nc4ccccc4N)cc3)CC2)c(C)nn1C` [Example 4, N-(2-Aminophenyl)-4-{1-[(5-methoxy-1,3-dimethyl-1H-pyrazol-4-yl)methyl]piperidin-4-yl}benzamide] were, in that order, 0.081 µM and 0.508 µM.
